Data on 4 molecules can be found in patent US8895047B2, “Combined fibrinolytic and antimicrobial catheter and uses thereof” (priority 2007, dated 2014).

Test [1] addresses T1, human urokinase enzyme (Homo sapiens, UniProt P00749).
T1 construct: purchased American Diagnostica
Kind of test: uPA activity assay (chromogenic substrate) after incubation with antimicrobial agents. In kind it is biochemical. The note with it: for Urokinase activity in the presence of antimicrobial agent: concentrations up to 10 μg/mL, 24 hours at 37° C. with 88 units (0.5 μg) uPA in PBS, FIGS. 2 and 3. Here is the method: To check the compatibility of urokinase (uPA) and chlorhexidine acetate (CHA), human urokinase enzyme (American Diagnostica) at different concentrations (0, 0.05, 0.5, and 1.0 μg/mL) was incubated with CHA at concentrations between 0-10 μg/mL for 24 hours at 37° C. in phosphate buffered saline (PBS). Subsequently, urokinase activity was measured using uPA Activity Assay Kit (Chemicon). Samples were incubated with an assay buffer and a chromogenic substrate for uPA resulting in the formation of a colored complex followed by reading the absorbance on a spectrophotometer at 405 nm. In a 96 well plate, different combinations of chlorhexidine (CHX), gentian violet (GV), minocycline and rifampin were incubated at concentrations of 0, 1, 10 μg/mL, for 24 hours at 37° C., with 88 units (0.5 μg) of uPA in PBS. Urokinase activity was measured using uPA Activity Assay Kit as described earlier.

In test [2] the test system is S. epidermidis. Description: Minimum inhibitory concentration of chlorhexidine acetate against S. epidermidis. Format: cell-based. Here is the method:
FIG. 4. Chlorhexidine activity in the presence of urokinase. […] CHA MIC Control=urokinase in tris-buffered saline (TBS)+CHA+Mueller-Hinton broth (MHB); Growth Control=dimethyl sulfoxide (DMSO)+TBS+S. epidermidis+MHB; Negative Control=DMSO+TBS+MHB.
To determine if urokinase affects the antimicrobial efficacy of chlorhexidine, the following experiment was conducted. The minimum inhibitory concentration (MIC) of chlorhexidine acetate (CHA) against S. epidermidis is 0.5 ppm in the absence of urokinase. Absorbance above baseline on the plot in […] indicates growth of microbial organisms (i.e., inability to inhibit microbial growth). An increase in the MIC would be indicative of a reduction in the antimicrobial potency of CHA due to interference by Urokinase.

Test [3] deals with T2, human tPA (Homo sapiens, UniProt P00750).
T2 construct: purchased Sigma
T2 sequence (P00750 36-562): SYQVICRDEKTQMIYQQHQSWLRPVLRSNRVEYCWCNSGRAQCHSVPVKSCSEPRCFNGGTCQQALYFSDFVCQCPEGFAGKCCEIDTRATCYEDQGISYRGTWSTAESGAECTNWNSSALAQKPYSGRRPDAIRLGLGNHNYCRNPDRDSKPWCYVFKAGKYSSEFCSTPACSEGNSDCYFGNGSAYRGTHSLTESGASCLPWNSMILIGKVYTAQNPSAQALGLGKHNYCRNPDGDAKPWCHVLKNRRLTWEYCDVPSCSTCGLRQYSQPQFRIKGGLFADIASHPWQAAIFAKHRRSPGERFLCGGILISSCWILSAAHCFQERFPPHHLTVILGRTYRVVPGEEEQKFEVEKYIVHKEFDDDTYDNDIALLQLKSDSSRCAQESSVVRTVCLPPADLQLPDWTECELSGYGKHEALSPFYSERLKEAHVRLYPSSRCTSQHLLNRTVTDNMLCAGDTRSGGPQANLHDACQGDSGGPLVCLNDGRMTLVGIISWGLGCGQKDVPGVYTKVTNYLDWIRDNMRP
Kind of test: tPA activity assay (chromogenic substrate) after incubation with antimicrobial agents. The note with it: concentrations up to 10 μg/mL, overnight at 37° C. with 50 units human tPA; FIGS. 5 and 6. Format: biochemical. As to the method: Different combinations of CHX, GV, minocycline and rifampin (0, 1, 10 μg/mL) were incubated overnight with 50 units of human tPA (Sigma) at 37° C., in buffer (30 mM Tris-HCl, 30 mM Imidazole, 130 mM NaCl, 1% protease free albumin). Samples were incubated with the chromogenic substrate (Sigma); tPA activity was determined by the hydrolysis of the substrate being measured continuously at 405 nm for 5 min at 50 seconds intervals. A standard curve was generated and the units plotted against the slope of the hydrolysis reaction.

For test [4], the target named is T3, human streptokinase (Streptococcus dysgalactiae subsp. equisimilis, UniProt P00779).
T3 construct: purchased Sigma
T3 sequence (P00779 27-440): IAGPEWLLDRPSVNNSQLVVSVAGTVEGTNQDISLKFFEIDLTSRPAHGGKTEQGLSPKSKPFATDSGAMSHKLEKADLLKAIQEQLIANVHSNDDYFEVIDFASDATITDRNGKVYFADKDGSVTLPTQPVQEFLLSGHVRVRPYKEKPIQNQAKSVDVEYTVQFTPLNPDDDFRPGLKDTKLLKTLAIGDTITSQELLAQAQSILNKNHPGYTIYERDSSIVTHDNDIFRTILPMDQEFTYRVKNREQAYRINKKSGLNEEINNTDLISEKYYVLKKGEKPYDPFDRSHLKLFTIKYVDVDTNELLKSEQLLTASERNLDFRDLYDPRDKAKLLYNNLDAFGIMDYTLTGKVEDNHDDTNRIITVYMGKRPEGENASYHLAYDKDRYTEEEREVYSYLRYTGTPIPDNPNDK
Description: Streptokinase activity assay (S-2251 chromogenic substrate, plasminogen) after incubation with antimicrobial agents. Format: biochemical. The note with it: any concentration up to 10 μg/mL, overnight at 37° C. with 16.5 units streptokinase; FIG. 7. As to the method: In a 96 well plate, different combinations of chlorhexidine (0, 1, 10 μg/mL) and gentian violet (0, 1, 10 μg/mL) were incubated overnight with 16.5 units of human streptokinase (Sigma) at 37° C., in 10 mM Tris-HCl buffer containing 0.1M NaCl and 1 mg/mL albumin. Streptokinase activity was measured using a chromogenic substrate S-2251 (Chromogenix). Samples were incubated with 0.6 mM S-2251 and 0.1 U/ml plasminogen (Sigma) for one hour. Hydrolysis of the substrate was measured at 405 nm and a standard curve was generated with the units plotted against the slope of the hydrolysis reaction.

For `CC(=O)O.CC(=O)O.NC(=N\CCCCCC/N=C(N)/N=C(\N)Nc1ccc(Cl)cc1)/N=C(\N)Nc1ccc(Cl)cc1` [CHA, chlorhexidine acetate], the “Urokinase activity in the presence of CHA” value in test [1] (CHA 0-10 μg/mL with uPA 0-1.0 μg/mL, 24 hours at 37° C. in PBS, CHA:uPA ratio 0.05 or higher, FIG. 1) is recorded as “not affected”. For the same molecule, the “minimum inhibitory concentration (MIC)” value in test [2] (in the absence of urokinase) was determined as 0.5 ppm. Also, the “MIC in the presence of Urokinase” value in test [2] (presence of urokinase, FIG. 4) is “not affected”.
Regarding `[H]/N=C(\N/C(=N/[H])NCCCCCCNC(=N)NC(=N)Nc1ccc(Cl)cc1)Nc1ccc(Cl)cc1` [CHX, chlorhexidine], the “Urokinase activity in the presence of antimicrobial agent” value in test [1] is given as “not adversely affected”. In addition, the “tPA activity in the presence of antimicrobial agent” value in test [3] is reported as “not affected”. Further, the “streptokinase activity in the presence of antimicrobial agent” value in test [4] was “unaffected”.
In the same order, the values of `CN(C)c1ccc(C(=C2C=CC(=[N+](C)C)C=C2)c2ccc(N(C)C)cc2)cc1` [GV, gentian violet] are “not adversely affected”, “not affected” and “unaffected”.
`CO[C@H]1/C=C/O[C@@]2(C)Oc3c(C)c(O)c4c(O)c(c(/C=N/N5CCN(C)CC5)c(O)c4c3C2=O)NC(=O)/C(C)=C\C=C\[C@H](C)[C@H](O)[C@@H](C)[C@@H](O)[C@@H](C)[C@H](OC(C)=O)[C@@H]1C` [rifampin]: the “Urokinase activity in the presence of antimicrobial agent” value in test [1] is on record as “not adversely affected”. Moreover, the “tPA activity in the presence of antimicrobial agent” value in test [3] is recorded as “not affected”.
